Measurements published in ChEMBL document CHEMBL1201862, “PubChem BioAssay data set” (2004).
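48-hour exposure; five concentrations; linearly interpolated endpoints. GI50 marks 50% less growth.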 The source made the active and inactive calls. Rule as the data show it: active = GI50 up to about 1.1 µM and inactive = higher.

What was measured:
Assay in all cases: NCI tumour cell line growth inhibition, 48 h
786-0 = system: 786-0
A498 = system: A498
A549 = system: A549
ACHN = system: ACHN
CAKI-1 = system: CAKI-1
CCRF-CEM = system: CCRF-CEM
COLO 205 = system: COLO 205
DLD-1 = system: DLD-1
DMS-273 = system: DMS-273
EKVX = system: EKVX
HCT-15 = system: HCT-15
HL-60 = system: HL-60
HOP-18 = system: HOP-18
HOP-92 = system: HOP-92
HT-29 = system: HT-29
IGROV-1 = system: IGROV-1
K562 = system: K562
KM-20L2 = system: KM-20L2
KM12 = system: KM12
LOX IMVI = system: LOX IMVI
LXFL 529 = system: LXFL 529
M14 = system: M14
M19-MEL = system: M19-MEL
MOLT-4 = system: MOLT-4
Malme-3M = system: Malme-3M
NCI-H226 = system: NCI-H226
NCI-H23 = system: NCI-H23
NCI-H460 = system: NCI-H460
NCI-H522 = system: NCI-H522
OVCAR-3 = system: OVCAR-3
OVCAR-4 = system: OVCAR-4
OVCAR-5 = system: OVCAR-5
OVCAR-8 = system: OVCAR-8
RPMI-8226 = system: RPMI-8226
RXF 393 = system: RXF 393
RXF 631 = system: RXF 631
SF-295 = system: SF-295
SF-539 = system: SF-539
SK-MEL-2 = system: SK-MEL-2
SK-MEL-5 = system: SK-MEL-5
SK-OV-3 = system: SK-OV-3
SN12C = system: SN12C
SNB-19 = system: SNB-19
SW-620 = system: SW-620
TK-10 = system: TK-10
U-251 = system: U-251
UACC-257 = system: UACC-257
UACC-62 = system: UACC-62
UO-31 = system: UO-31
XF498 = system: XF498
DMS-114 = system: DMS-114
HCC 2998 = system: HCC 2998
HOP-62 = system: HOP-62
SF-268 = system: SF-268
SK-MEL-28 = system: SK-MEL-28
SNB-75 = system: SNB-75
SNB-78 = system: SNB-78

O=C(O)CN(c1ccccc1)S(=O)(=O)c1ccc([N+](=O)[O-])cc1
GI50 (786-0): > 100 µM (inactive) | GI50 (A498): > 100 µM (inactive) | GI50 (A549): > 100 µM (inactive) | GI50 (ACHN): > 100 µM (inactive) | GI50 (CAKI-1): > 100 µM (inactive) | GI50 (CCRF-CEM): > 100 µM (inactive) | GI50 (COLO 205): > 100 µM (inactive) | GI50 (DLD-1): > 100 µM (inactive) | GI50 (DMS-273): > 100 µM (inactive) | GI50 (EKVX): > 100 µM (inactive) | GI50 (HCT-15): > 100 µM | GI50 (HL-60): > 100 µM (inactive) | GI50 (HOP-18): > 100 µM (inactive) | GI50 (HOP-92): > 100 µM (inactive) | GI50 (HT-29): > 100 µM (inactive) | GI50 (IGROV-1): > 100 µM (inactive) | GI50 (K562): > 100 µM (inactive) | GI50 (KM-20L2): > 100 µM (inactive) | GI50 (KM12): > 100 µM (inactive) | GI50 (LOX IMVI): > 100 µM (inactive) | GI50 (LXFL 529): > 100 µM (inactive) | GI50 (M14): > 100 µM (inactive) | GI50 (M19-MEL): > 100 µM (inactive) | GI50 (MOLT-4): > 100 µM (inactive) | GI50 (Malme-3M): > 100 µM (inactive) | GI50 (NCI-H226): > 100 µM (inactive) | GI50 (NCI-H23): > 100 µM (inactive) | GI50 (NCI-H460): > 100 µM (inactive) | GI50 (NCI-H522): > 100 µM (inactive) | GI50 (OVCAR-3): > 100 µM (inactive) | GI50 (OVCAR-4): > 100 µM (inactive) | GI50 (OVCAR-5): > 100 µM (inactive) | GI50 (OVCAR-8): > 100 µM (inactive) | GI50 (RPMI-8226): > 100 µM (inactive) | GI50 (RXF 393): > 100 µM (inactive) | GI50 (RXF 631): > 100 µM (inactive) | GI50 (SF-295): > 100 µM (inactive) | GI50 (SF-539): > 100 µM (inactive) | GI50 (SK-MEL-2): > 100 µM (inactive) | GI50 (SK-MEL-5): > 100 µM (inactive) | GI50 (SK-OV-3): > 100 µM (inactive) | GI50 (SN12C): > 100 µM (inactive) | GI50 (SNB-19): > 100 µM (inactive) | GI50 (SW-620): > 100 µM (inactive) | GI50 (TK-10): > 100 µM (inactive) | GI50 (U-251): > 100 µM (inactive) | GI50 (UACC-257): > 100 µM (inactive) | GI50 (UACC-62): > 100 µM (inactive) | GI50 (UO-31): > 100 µM (inactive) | GI50 (XF498): > 100 µM (inactive)

Cn1ncc2cc3c(Nc4ccc(Cl)cc4)cccc3nc21
GI50 (786-0): 21.6 µM (inactive) | GI50 (A549): 18.2 µM (inactive) | GI50 (ACHN): 15 µM (inactive) | GI50 (CAKI-1): 15.5 µM (inactive) | GI50 (CCRF-CEM): 15.1 µM (inactive) | GI50 (COLO 205): 13.7 µM (inactive) | GI50 (DLD-1): 20.3 µM (inactive) | GI50 (DMS-114): 12.9 µM (inactive) | GI50 (DMS-273): > 10 µM (inactive) | GI50 (EKVX): 18.1 µM (inactive) | GI50 (HCC 2998): 21 µM (inactive) | GI50 (HCT-15): 14.1 µM | GI50 (HL-60): 11 µM (inactive) | GI50 (HOP-62): 15 µM (inactive) | GI50 (HOP-92): 6.67 µM (inactive) | GI50 (IGROV-1): 15.3 µM (inactive) | GI50 (K562): 20 µM (inactive) | GI50 (KM-20L2): 14.7 µM (inactive) | GI50 (KM12): 17.3 µM (inactive) | GI50 (LOX IMVI): 14.9 µM (inactive) | GI50 (LXFL 529): 15.6 µM (inactive) | GI50 (M14): 18.8 µM (inactive) | GI50 (M19-MEL): 22.1 µM (inactive) | GI50 (MOLT-4): 6.82 µM (inactive) | GI50 (Malme-3M): 23 µM (inactive) | GI50 (NCI-H23): 22.2 µM (inactive) | GI50 (NCI-H460): 8.61 µM (inactive) | GI50 (NCI-H522): 1.75 µM (inactive) | GI50 (OVCAR-3): 12.7 µM (inactive) | GI50 (OVCAR-4): 11.8 µM (inactive) | GI50 (OVCAR-5): > 10 µM (inactive) | GI50 (OVCAR-8): 19 µM (inactive) | GI50 (RPMI-8226): 10.9 µM (inactive) | GI50 (RXF 393): 6.87 µM (inactive) | GI50 (RXF 631): 17.7 µM (inactive) | GI50 (SF-268): 15.8 µM (inactive) | GI50 (SF-295): 14.2 µM (inactive) | GI50 (SK-MEL-28): 15.1 µM (inactive) | GI50 (SK-MEL-2): 22.6 µM (inactive) | GI50 (SK-MEL-5): 13.1 µM (inactive) | GI50 (SK-OV-3): 61.2 µM (inactive) | GI50 (SN12C): 18.1 µM (inactive) | GI50 (SNB-19): 37.8 µM (inactive) | GI50 (SNB-75): 19.4 µM (inactive) | GI50 (SNB-78): 34 µM (inactive) | GI50 (SW-620): 13.9 µM (inactive) | GI50 (TK-10): 26.9 µM (inactive) | GI50 (UACC-257): 18.9 µM (inactive) | GI50 (UACC-62): 15.1 µM (inactive) | GI50 (UO-31): 7.4 µM (inactive) | GI50 (XF498): 8.11 µM (inactive)
